Reference: patent US20190308988A1, “OPIOID RECEPTOR ANTAGONIST PRODRUGS” (Nirsum Laboratories, Inc., priority 2017, published 2019)

Assays:
[1] = Plasma stability, human plasma (HPLC-MS); format: in vitro ADME; conditions: 2 μM, 37° C., 15 min
Protocol: Plasma Stability Determination of the Test Compounds in Rat, Dog, Cynomolgus Monkey and human plasma is performed using HPLC-MS. For rat, incubations are carried out in 96-well polypropylene plates in 5 aliquots of 70 μL each (one for each time point). […] Five time points are analyzed (0, 15, 120, 480 and 1440 min). […] All incubations are performed in duplicates. The samples are analyzed by HPLC-MS. The percentage of parent compound remaining after incubation in plasma is determined.

[2] = Dog body weights and clinical observation (Tables 66-86); format: in vivo, Beagle dogs; conditions: 48 mg/kg Shallow IM, dog D1002, 1128 hr
Protocol: Weight monitoring was done every week.
The dose formulation (concentration—400 mg base equivalents/ml in sesame oil+1% benzyl alcohol, unless otherwise specified) was administered via deep intramuscularly (unless otherwise specified). The injection vehicle was also dosed via deep intramuscular route (unless otherwise specified) on contralateral site of each animal at study initiation. The animals were sedated with Propofol at 6 mg/kg via IV administration. Following sedation hair was carefully removed from around the injection site and the area gently cleaned. Care will be taken to avoid irritating skin during shaving and cleaning the injection site. Then dogs will be dosed with deep IM administration. At least 2.5 cm depth from the surface into the central aspect of the quadriceps or biceps femoris muscle, by angling the needle toward the femur. If the needle hits the femur, simply draws back slightly and then inject. The dose volume will be determined by the animals' body weight collected on the morning of dosing day. For repeated administration, the injection sites may be rotated to minimize tissue injury.

SMILES: C=C1CC[C@@]2(O)C3Cc4ccc(OCOC(=O)OCCCCCCCCCCCC)c5c4[C@@]2(CCN3CC2CC2)[C@H]1O5 [Compound 24, (((4aS,7aS,12bS)-3-(cyclopropylmethyl)-4a-hydroxy-7-methylene-2,3,4,4a,5,6,7,7a-octahydro-1H-4,12-methanobenzofuro[3,2-e]isoquinolin-9-yl)oxy)methyl dodecyl carbonate]
- % remaining at time point in minutes, 15 min [1]: 94%
- BT [2]: BT: 38.8 °C
